Assay results taken from patent publication US20260262643A1, “HERBICIDAL BENZOXAZINES” (FMC CORPORATION, priority 2022, published 2026).

How the values were obtained:
[1] = test system: corn; test: Test C postemergence; type: in vivo, Zea mays; conditions: 10 days, 0 to 100 scale (0 no effect, 100 complete control)
In short: (§1)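 Seeds sown in loam soil–sand blend received a directed preemergence soil spray of test chemical in non-phytotoxic solvent with surfactant; postemergence plants (2–10 cm, one- to two-leaf stage) were sprayed with the same formulation. Greenhouse-held 10 days, then visually rated for injury versus untreated controls, 0 (no effect) to 100 (complete control).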

[2] = test system: kochia; test: Test C preemergence; type: in vivo, Bassia scoparia; conditions: for Kochia plant response rating: preemergence, 0 to 100 scale (0 no effect, 100 complete control)
In short: as §1

[3] = test system: barnyardgrass; test: Test D flooded paddy test; type: in vivo, Echinochloa crus-galli; conditions: 250 g ai/ha, applied to paddy water, visual rating after 13 to 14 days, scale 0 to 100 (0 no effect, 100 complete control)
In short: (§2)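 Visual ratings from 0, meaning no effect, to 100, meaning complete control, were assigned against untreated controls 13 to 14 days after compounds were added to the floodwater of pots kept 3 cm deep, with plants at the 2-leaf stage.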

[4] = test system: soybean; test: Test C postemergence; type: in vivo, Glycine max; conditions: 10 days, 0 to 100 scale (0 no effect, 100 complete control)
In short: as §1

[5] = test system: oat, wild; test: Test C preemergence; type: in vivo, Avena fatua; conditions: for Oat, Wild plant response rating: preemergence, 0 to 100 scale (0 no effect, 100 complete control)
In short: as §1

[6] = test system: blackgrass; test: Test C postemergence; type: in vivo, Alopecurus myosuroides; conditions: 10 days, 0 to 100 scale (0 no effect, 100 complete control)
In short: as §1

[7] = test system: pigweed, palmer; test: Test C preemergence; type: in vivo, Amaranthus palmeri; conditions: for Pigweed, Palmer plant response rating: preemergence, 0 to 100 scale (0 no effect, 100 complete control)
In short: as §1

[8] = test system: horseweed; test: Test C postemergence; type: in vivo, Erigeron canadensis; conditions: 10 days, 0 to 100 scale (0 no effect, 100 complete control)
In short: as §1

[9] = test system: barnyardgrass; test: Test C preemergence; type: in vivo, Echinochloa crusgalli; conditions: for Barnyardgrass plant response rating: preemergence, 0 to 100 scale (0 no effect, 100 complete control)
In short: as §1

[10] = test system: wheat; test: Test C preemergence; type: in vivo, Triticum aestivum; conditions: for Wheat plant response rating: preemergence, 0 to 100 scale (0 no effect, 100 complete control)
In short: as §1

[11] = test system: ducksalad; test: Test D flooded paddy test; type: in vivo, Heteranthera limosa; conditions: 250 g ai/ha, applied to paddy water, visual rating after 13 to 14 days, scale 0 to 100 (0 no effect, 100 complete control)
In short: as §2

[12] = test system: corn; test: Test C preemergence; type: in vivo, Zea mays; conditions: for Corn plant response rating: preemergence, 0 to 100 scale (0 no effect, 100 complete control)
In short: as §1

[13] = test system: oat, wild; test: Test C postemergence; type: in vivo, Avena fatua; conditions: 10 days, 0 to 100 scale (0 no effect, 100 complete control)
In short: as §1

[14] = test system: green foxtail; test: Test C preemergence; type: in vivo, Setaria viridis; conditions: for Foxtail, Green plant response rating: preemergence, 0 to 100 scale (0 no effect, 100 complete control)
In short: as §1

[15] = test system: ragweed; test: Test C postemergence; type: in vivo, Ambrosia artemisiifolia; conditions: 10 days, 0 to 100 scale (0 no effect, 100 complete control)
In short: as §1

[16] = test system: sedge, umbrella; test: Test D flooded paddy test; type: in vivo, Cyperus difformis; conditions: 250 g ai/ha, applied to paddy water, visual rating after 13 to 14 days, scale 0 to 100 (0 no effect, 100 complete control)
In short: as §2

[17] = test system: galium; test: Test C postemergence; type: in vivo, Galium aparine; conditions: 10 days, 0 to 100 scale (0 no effect, 100 complete control)
In short: as §1

[18] = test system: green foxtail; test: Test C postemergence; type: in vivo, Setaria viridis; conditions: 10 days, 0 to 100 scale (0 no effect, 100 complete control)
In short: as §1

[19] = test system: ragweed; test: Test C preemergence; type: in vivo, Ambrosia artemisiifolia; conditions: for Ragweed plant response rating: preemergence, 0 to 100 scale (0 no effect, 100 complete control)
In short: as §1

[20] = test system: ryegrass, Italian; test: Test C postemergence; type: in vivo, Lolium multiflorum; conditions: 10 days, 0 to 100 scale (0 no effect, 100 complete control)
In short: as §1

[21] = test system: ryegrass, Italian; test: Test C preemergence; type: in vivo, Lolium multiflorum; conditions: for Ryegrass, Italian plant response rating: preemergence, 0 to 100 scale (0 no effect, 100 complete control)
In short: as §1

[22] = test system: pigweed, palmer; test: Test C postemergence; type: in vivo, Amaranthus palmeri; conditions: 10 days, 0 to 100 scale (0 no effect, 100 complete control)
In short: as §1

[23] = test system: rice; test: Test D flooded paddy test; type: in vivo, Oryza sativa; conditions: 250 g ai/ha, applied to paddy water, visual rating after 13 to 14 days, scale 0 to 100 (0 no effect, 100 complete control)
In short: as §2

[24] = test system: soybean; test: Test C preemergence; type: in vivo, Glycine max; conditions: for Soybean plant response rating: preemergence, 0 to 100 scale (0 no effect, 100 complete control)
In short: as §1

[25] = test system: blackgrass; test: Test C preemergence; type: in vivo, Alopecurus myosuroides; conditions: for Blackgrass plant response rating: preemergence, 0 to 100 scale (0 no effect, 100 complete control)
In short: as §1

[26] = test system: barnyardgrass; test: Test C postemergence; type: in vivo, Echinochloa crusgalli; conditions: 10 days, 0 to 100 scale (0 no effect, 100 complete control)
In short: as §1

[27] = test system: kochia; test: Test C postemergence; type: in vivo, Bassia scoparia; conditions: 10 days, 0 to 100 scale (0 no effect, 100 complete control)
In short: as §1

[28] = test system: wheat; test: Test C postemergence; type: in vivo, Triticum aestivum; conditions: 10 days, 0 to 100 scale (0 no effect, 100 complete control)
In short: as §1

[29] = Preemergence, 125 g ai/ha, 0 to 100 scale, 0 no effect, 100 complete control

SMILES: COc1ncn(-c2cccc(C(=O)N3C[C@H](C)Oc4c(Cl)cccc43)c2)n1 [Compound 310]
- Plant response rating, Corn ([1]; 500 g ai/ha, postemergence): 60
- Plant response rating, Corn ([1]; Postemergence, 125 g ai/ha): 10
- Kochia plant response rating ([2]; 500 g ai/ha): 80
- Kochia plant response rating ([2]; Test C, 125 g ai/ha): 50
- Plant response rating, Barnyardgrass (Flood) [3]: 10
- Plant response rating, Soybean ([4]; 500 g ai/ha, postemergence): 100
- Plant response rating, Soybean ([4]; Postemergence, 125 g ai/ha): 90
- Oat, Wild plant response rating ([5]; 500 g ai/ha): 60
- Oat, Wild plant response rating ([5]; Test C, 125 g ai/ha): 0
- Plant response rating, Blackgrass ([6]; 500 g ai/ha, postemergence): 90
- Plant response rating, Blackgrass ([6]; Postemergence, 125 g ai/ha): 50
- Pigweed, Palmer plant response rating ([7]; 500 g ai/ha): 100
- Pigweed, Palmer plant response rating ([7]; Test C, 125 g ai/ha): 80
- Plant response rating, Horseweed ([8]; 500 g ai/ha, postemergence): 30
- Plant response rating, Horseweed ([8]; Postemergence, 125 g ai/ha): 0
- Barnyardgrass plant response rating ([9]; 500 g ai/ha): 80
- Barnyardgrass plant response rating ([9]; Test C, 125 g ai/ha): 20
- Wheat plant response rating ([10]; 500 g ai/ha): 0
- Wheat plant response rating ([10]; Test C, 125 g ai/ha): 0
- Plant response rating, Ducksalad (Flood) [11]: 75
- Corn plant response rating ([12]; 500 g ai/ha): 0
- Corn plant response rating ([12]; Test C, 125 g ai/ha): 0
- Plant response rating, Oat, Wild ([13]; 500 g ai/ha, postemergence): 40
- Plant response rating, Oat, Wild ([13]; Postemergence, 125 g ai/ha): 0
- Foxtail, Green plant response rating ([14]; 500 g ai/ha): 100
- Foxtail, Green plant response rating ([14]; Test C, 125 g ai/ha): 100
- Plant response rating, Ragweed ([15]; 500 g ai/ha, postemergence): 50
- Plant response rating, Ragweed ([15]; Postemergence, 125 g ai/ha): 30
- Plant response rating, Sedge, Umbrella (Flood) [16]: 80
- Plant response rating, Galium ([17]; 500 g ai/ha, postemergence): 90
- Plant response rating, Galium ([17]; Postemergence, 125 g ai/ha): 90
- Plant response rating, Foxtail, Green ([18]; 500 g ai/ha, postemergence): 50
- Plant response rating, Foxtail, Green ([18]; Postemergence, 125 g ai/ha): 50
- Ragweed plant response rating ([19]; 500 g ai/ha): 0
- Ragweed plant response rating ([19]; Test C, 125 g ai/ha): 0
- Plant response rating, Ryegrass, Italian ([20]; 500 g ai/ha, postemergence): 80
- Plant response rating, Ryegrass, Italian ([20]; Postemergence, 125 g ai/ha): 30
- Ryegrass, Italian plant response rating ([21]; 500 g ai/ha): 80
- Ryegrass, Italian plant response rating ([21]; Test C, 125 g ai/ha): 30
- Plant response rating, Pigweed, Palmer ([22]; 500 g ai/ha, postemergence): 90
- Plant response rating, Pigweed, Palmer ([22]; Postemergence, 125 g ai/ha): 70
- Plant response rating, Rice (Flood) [23]: 0
- Soybean plant response rating ([24]; 500 g ai/ha): 0
- Soybean plant response rating ([24]; Test C, 125 g ai/ha): 40
- Blackgrass plant response rating ([25]; 500 g ai/ha): 50
- Blackgrass plant response rating ([25]; Test C, 125 g ai/ha): 10
- Plant response rating, Barnyardgrass ([26]; 500 g ai/ha, postemergence): 80
- Plant response rating, Barnyardgrass ([26]; Postemergence, 125 g ai/ha): 20
- Plant response rating, Kochia ([27]; 500 g ai/ha, postemergence): 90
- Plant response rating, Kochia ([27]; Postemergence, 125 g ai/ha): 70
- Plant response rating, Wheat ([28]; 500 g ai/ha, postemergence): 50
- Plant response rating, Wheat ([28]; Postemergence, 125 g ai/ha): 10

SMILES: CCOCC1CN(C(=O)c2cc(-n3cnc(CC)n3)ccc2OC)c2cccc(Cl)c2O1 (centres unmarked) [Compound 378]
- Plant response rating, Corn ([1]; 500 g ai/ha, postemergence): 80
- Plant response rating, Corn ([1]; Postemergence, 125 g ai/ha): 20
- Kochia plant response rating ([2]; 500 g ai/ha): 100
- Plant response rating, Kochia [2, 29]: 100
- Plant response rating, Barnyardgrass (Flood) [3]: 0
- Plant response rating, Soybean ([4]; 500 g ai/ha, postemergence): 100
- Plant response rating, Soybean ([4]; Postemergence, 125 g ai/ha): 100
- Oat, Wild plant response rating ([5]; 500 g ai/ha): 60
- Plant response rating, Oat, Wild [5, 29]: 20
- Plant response rating, Blackgrass ([6]; 500 g ai/ha, postemergence): 50
- Plant response rating, Blackgrass ([6]; Postemergence, 125 g ai/ha): 30
- Pigweed, Palmer plant response rating ([7]; 500 g ai/ha): 100
- Plant response rating, Pigweed, Palmer [7, 29]: 100
- Plant response rating, Horseweed ([8]; 500 g ai/ha, postemergence): 70
- Plant response rating, Horseweed ([8]; Postemergence, 125 g ai/ha): 10
- Barnyardgrass plant response rating ([9]; 500 g ai/ha): 100
- Plant response rating, Barnyardgrass [9, 29]: 80
- Wheat plant response rating ([10]; 500 g ai/ha): 30
- Plant response rating, Wheat [10, 29]: 10
- Plant response rating, Ducksalad (Flood) [11]: 0
- Corn plant response rating ([12]; 500 g ai/ha): 50
- Plant response rating, Corn [12, 29]: 0
- Plant response rating, Oat, Wild ([13]; 500 g ai/ha, postemergence): 30
- Plant response rating, Oat, Wild ([13]; Postemergence, 125 g ai/ha): 0
- Foxtail, Green plant response rating ([14]; 500 g ai/ha): 100
- Plant response rating, Foxtail, Green [14, 29]: 90
- Plant response rating, Ragweed ([15]; 500 g ai/ha, postemergence): 90
- Plant response rating, Ragweed ([15]; Postemergence, 125 g ai/ha): 70
- Plant response rating, Sedge, Umbrella (Flood) [16]: 0
- Plant response rating, Galium ([17]; 500 g ai/ha, postemergence): 100
- Plant response rating, Galium ([17]; Postemergence, 125 g ai/ha): 90
- Plant response rating, Foxtail, Green ([18]; 500 g ai/ha, postemergence): 90
- Plant response rating, Foxtail, Green ([18]; Postemergence, 125 g ai/ha): 70
- Ragweed plant response rating ([19]; 500 g ai/ha): 80
- Plant response rating, Ragweed [19, 29]: 60
- Plant response rating, Ryegrass, Italian ([20]; 500 g ai/ha, postemergence): 60
- Plant response rating, Ryegrass, Italian ([20]; Postemergence, 125 g ai/ha): 20
- Ryegrass, Italian plant response rating ([21]; 500 g ai/ha): 90
- Plant response rating, Ryegrass, Italian [21, 29]: 60
- Plant response rating, Pigweed, Palmer ([22]; 500 g ai/ha, postemergence): 100
- Plant response rating, Pigweed, Palmer ([22]; Postemergence, 125 g ai/ha): 90
- Plant response rating, Rice (Flood) [23]: 0
- Soybean plant response rating ([24]; 500 g ai/ha): 90
- Plant response rating, Soybean [24, 29]: 60
- Blackgrass plant response rating ([25]; 500 g ai/ha): 50
- Plant response rating, Blackgrass [25, 29]: 10
- Plant response rating, Barnyardgrass ([26]; 500 g ai/ha, postemergence): 80
- Plant response rating, Barnyardgrass ([26]; Postemergence, 125 g ai/ha): 40
- Plant response rating, Kochia ([27]; 500 g ai/ha, postemergence): 100
- Plant response rating, Kochia ([27]; Postemergence, 125 g ai/ha): 90
- Plant response rating, Wheat ([28]; 500 g ai/ha, postemergence): 40
- Plant response rating, Wheat ([28]; Postemergence, 125 g ai/ha): 30
